Measurements reported in PubChem BioAssay (NCI).
“And” between values parts separate entries of the source, which are not always exact repeats. Identical values can stand only once.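 Tested at 5 concentrations; 48 h exposure; 96-well plates; endpoints linearly interpolated, else capped at highest concentration. GI50 = concentration required for 50% inhibition of growth. TGI is the concentration that stops growth completely.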

Columns and labels:
Test in all cases: NCI-60 cell line screen, 48 h
MDA-MB-435 = system: MDA-MB-435
T-47D breast = system: T-47D breast
MDA-MB-231 breast = system: MDA-MB-231 breast
PC-3 prostate = system: PC-3 prostate
MCF7 breast = system: MCF7 breast
BT-549 breast = system: BT-549 breast

## O=C1/C(=C/c2cccc([N+](=O)[O-])c2)COc2ccc(O)c(O)c21
MDA-MB-435
  GI50: 1.69 µM
  TGI: 3.77 µM
T-47D breast
  GI50: 1.17 µM
  TGI: 3.92 µM
MDA-MB-231 breast
  GI50: 1.47 µM
  TGI: 2.98 µM
PC-3 prostate
  GI50: 1.16 µM
  TGI: 4.14 µM
MCF7 breast
  GI50: 0.665 µM
  TGI: 2.96 µM
BT-549 breast
  GI50: 2.42 µM
  TGI: 4.84 µM

## CC/C=C\C[C@H](O)C/C=C1/C(=O)C=C[C@@H]1C/C=C\CCCC(=O)NC(C)C
MDA-MB-435
  GI50: 2.3 µM
  TGI: 6.51 µM
T-47D breast
  GI50: 4.19 µM
  TGI: 19.2 µM
MDA-MB-231 breast
  GI50: 4.72 µM
  TGI: 16.7 µM
PC-3 prostate
  GI50: 2.52 µM
  TGI: 6.24 µM
MCF7 breast
  GI50: 2.18 µM
  TGI: 13.9 µM
BT-549 breast
  GI50: 2.45 µM
  TGI: 6.13 µM

## COc1cccc(-c2nn(-c3ccccc3)cc2-c2ccnc(NCCNS(=O)(=O)c3ccc(Cl)cc3)c2)c1
MDA-MB-435
  GI50: 3.81 µM
  TGI: > 100 µM
T-47D breast
  GI50: 2.52 µM
  TGI: 8.66 µM
MDA-MB-231 breast
  GI50: 3.55 µM
  TGI: > 100 µM
PC-3 prostate
  GI50: 2.44 µM
  TGI: > 100 µM
MCF7 breast
  GI50: 2.98 µM
  TGI: 18.4 µM
BT-549 breast
  GI50: 4.07 µM
  TGI: > 100 µM

## CS(=O)(=O)c1ccc(Oc2cc(F)cc(C#N)c2)c2c1[C@H](O)[C@H](F)[C@@H]2F
MDA-MB-435
  GI50: > 100 µM
  TGI: > 100 µM
T-47D breast
  GI50: > 100 µM
  TGI: > 100 µM
MDA-MB-231 breast
  GI50: > 100 µM
  TGI: > 100 µM
PC-3 prostate
  GI50: > 100 µM
  TGI: > 100 µM
MCF7 breast
  GI50: > 100 µM
  TGI: > 100 µM
BT-549 breast
  GI50: > 100 µM
  TGI: > 100 µM

## CCCCCCCCCCCCN1C(C)=CS/C1=C\C=C\c1scc(C)[n+]1CCCCCCCCCCCC
MDA-MB-435
  GI50: 1.21 µM
  TGI: 3.68 µM
T-47D breast
  GI50: 0.817 µM
  TGI: 6.77 µM
PC-3 prostate
  GI50: 1.03 µM
  TGI: 3.46 µM
BT-549 breast
  GI50: 1.54 µM
  TGI: 7.17 µM

## OCCN(CCO)N=Nc1ccc(-c2nc3ccccc3[nH]2)cc1
MDA-MB-435
  GI50: 18.5 µM
  TGI: 38.8 µM
T-47D breast
  GI50: 19.8 µM
  TGI: 53.1 µM
MDA-MB-231 breast
  GI50: 31.3 µM
  TGI: 97.8 µM
PC-3 prostate
  GI50: 39.4 µM
  TGI: > 100 µM
BT-549 breast
  GI50: 42.7 µM
  TGI: 97.8 µM

## CC(O)C1OC(O)C2OC(C)(C)OC12 (stereo unspecified)
MDA-MB-435
  TGI: > 100 µM
T-47D breast
  TGI: > 100 µM
MDA-MB-231 breast
  TGI: > 100 µM
PC-3 prostate
  TGI: > 100 µM
MCF7 breast
  TGI: > 100 µM
BT-549 breast
  TGI: > 100 µM

## CC(C)C[C@H](NC(=O)[C@H](Cc1ccccc1)n1ccc(N2CCCCC2)cc1=O)B(O)O
MDA-MB-435
  GI50: 0.177 µM
  TGI: 0.371 µM
T-47D breast
  GI50: 0.781 µM
  TGI: 6.09 µM
MDA-MB-231 breast
  GI50: 1.2 µM
  TGI: 12.2 µM
PC-3 prostate
  GI50: 4.19 µM
  TGI: > 100 µM
MCF7 breast
  GI50: 0.392 µM
  TGI: > 100 µM
BT-549 breast
  GI50: 0.364 µM
  TGI: 4.32 µM

## CC(C(=O)N1C(=O)N(C(=O)C(C)C(O)c2ccccc2)C(c2ccccc2)C1c1ccccc1)C(O)c1ccccc1 (stereo unspecified)
MDA-MB-435
  TGI: 61.2 µM
T-47D breast
  TGI: > 100 µM
MDA-MB-231 breast
  TGI: 77.9 µM
MCF7 breast
  TGI: > 100 µM
BT-549 breast
  TGI: 38.8 µM

## Cc1ccc(C)c(NC(=O)C(=O)C2C(=O)C3=C(CC2(C)C)Nc2ccccc2S3)c1 (stereo unspecified)
MDA-MB-435
  TGI: > 100 µM
MDA-MB-231 breast
  TGI: > 100 µM
PC-3 prostate
  TGI: > 100 µM
MCF7 breast
  TGI: > 100 µM
BT-549 breast
  TGI: > 100 µM

## Cn1c(C(N)=O)cc2c1-c1nc(Nc3ccccc3)ncc1CCC2
MDA-MB-435
  GI50: 3.88 µM
  TGI: > 100 µM
T-47D breast
  GI50: 7.12 µM
  TGI: 37.4 µM
MDA-MB-231 breast
  GI50: 5.59 µM
  TGI: > 100 µM
PC-3 prostate
  GI50: 5.19 µM
  TGI: 41.6 µM
MCF7 breast
  GI50: 4.41 µM
  TGI: > 100 µM
BT-549 breast
  GI50: 3.29 µM
  TGI: 27.8 µM

## COC(=O)/C=C/c1cc(O)c2c(c1)C(C(=O)OC)C(c1ccc(O)c(O)c1)O2 (stereo unspecified)
MDA-MB-435
  TGI: 0.0513 µM
T-47D breast
  GI50: 1.55 µM
  TGI: 57.9 µM
MDA-MB-231 breast
  GI50: 0.192 µM and 0.308 µM
  TGI: 18.2 µM and 47.1 µM
PC-3 prostate
  GI50: 0.573 µM and 0.817 µM
  TGI: 69 µM and 65.8 µM
MCF7 breast
  GI50: 0.0337 µM
  TGI: 82.1 µM and > 100 µM
BT-549 breast
  GI50: 0.127 µM and 0.103 µM
  TGI: 39.8 µM and 5.39 µM

## CC(C)(C)[OH+][O-].[O-]c1ccc(Cl)cc1C=Nc1ccc(Cl)cc1[O-].[O]=[V]
MDA-MB-435
  GI50: 14.6 µM
  TGI: > 100 µM
T-47D breast
  GI50: 11.9 µM
  TGI: 98.7 µM
MDA-MB-231 breast
  GI50: 29.9 µM
  TGI: > 100 µM
PC-3 prostate
  GI50: 26.1 µM
  TGI: > 100 µM
MCF7 breast
  GI50: 11.4 µM
  TGI: 30 µM
BT-549 breast
  GI50: 13.2 µM
  TGI: 28.6 µM

## COc1cc(/C=C(/C)[N+](=O)[O-])ccc1O
MDA-MB-435
  GI50: 2.16 µM and 1.64 µM
  TGI: 6.33 µM and 4.4 µM
T-47D breast
  GI50: 2.07 µM and 2.25 µM
  TGI: 5.05 µM and 5.72 µM
MDA-MB-231 breast
  GI50: 2.14 µM and 2.64 µM
  TGI: 5.5 µM and 7.44 µM
PC-3 prostate
  GI50: 2.68 µM and 2.74 µM
  TGI: 7.27 µM and 6.86 µM
MCF7 breast
  GI50: 1.44 µM and 1.37 µM
  TGI: 3.39 µM and 2.9 µM
BT-549 breast
  GI50: 2.34 µM and 3.08 µM
  TGI: 4.67 µM and 8.82 µM

## C=C1C(=O)O[C@H]2[C@H]1CC/C(COC(=O)C(=O)c1c[nH]c3ccccc13)=C\CC[C@@]1(C)O[C@@H]21
MDA-MB-435
  GI50: 2.63 µM
  TGI: 9.82 µM
T-47D breast
  GI50: 1.61 µM
  TGI: 4.47 µM
MDA-MB-231 breast
  GI50: 2.46 µM
  TGI: 5.5 µM
PC-3 prostate
  GI50: 2.13 µM
  TGI: 4.37 µM
MCF7 breast
  GI50: 2.16 µM
  TGI: 8.83 µM
BT-549 breast
  GI50: 2.08 µM
  TGI: 5.22 µM

## O=C(Nc1ccc(S(=O)(=O)Nc2nccs2)cc1)c1cccnc1Nc1cccc(Cl)c1
MDA-MB-435
  GI50: 14.3 µM
  TGI: 33.4 µM
T-47D breast
  GI50: 8.42 µM
  TGI: > 100 µM
MDA-MB-231 breast
  GI50: 5.73 µM
  TGI: 21.4 µM
PC-3 prostate
  GI50: 14.3 µM
  TGI: 43 µM
MCF7 breast
  GI50: 12.2 µM
  TGI: 32.5 µM
BT-549 breast
  GI50: 16 µM
  TGI: 39.3 µM

## COc1ccc(C(=O)Cn2c(C(=O)c3ccc(OC)cc3)nc3ccccc32)cc1
MDA-MB-435
  GI50: 0.284 µM
  TGI: > 34.4 µM
T-47D breast
  GI50: 3.39 µM
  TGI: > 100 µM
MDA-MB-231 breast
  GI50: 9.23 µM
  TGI: > 100 µM
PC-3 prostate
  GI50: 2.43 µM
  TGI: > 100 µM
MCF7 breast
  GI50: 1.36 µM
  TGI: > 100 µM
BT-549 breast
  GI50: 3.52 µM
  TGI: > 100 µM

## Oc1c(CN2CCC(N3CCOCC3)CC2)cc(Cc2cc(CN3CCC(N4CCOCC4)CC3)c(O)c3ncccc23)c2cccnc12
MDA-MB-435
  GI50: 2.01 µM
  TGI: 74.7 µM
T-47D breast
  GI50: 1.11 µM
  TGI: 17 µM
MDA-MB-231 breast
  GI50: 0.27 µM
  TGI: 5.03 µM
PC-3 prostate
  GI50: 0.565 µM
  TGI: > 100 µM
MCF7 breast
  GI50: 0.543 µM
  TGI: > 100 µM
BT-549 breast
  GI50: 1.2 µM
  TGI: 29 µM

## Cn1ccnc1C(=O)/C=C/c1ccc(CC(=O)Nc2ccc(Cl)cc2)cc1
MDA-MB-435
  GI50: 9.16 µM
  TGI: > 25 µM
T-47D breast
  GI50: 4.3 µM
  TGI: > 25 µM
MDA-MB-231 breast
  GI50: 5.23 µM
  TGI: > 25 µM
PC-3 prostate
  GI50: 1.37 µM
  TGI: > 25 µM
MCF7 breast
  GI50: 0.891 µM
  TGI: > 25 µM
BT-549 breast
  GI50: 3.53 µM
  TGI: > 25 µM

## Oc1ccc(C(c2ccccc2)(c2ccccc2)c2ccccc2)cc1
MDA-MB-435
  GI50: 19.9 µM
  TGI: 38.3 µM
MDA-MB-231 breast
  GI50: 16.7 µM
  TGI: 34.2 µM
PC-3 prostate
  GI50: 20.6 µM
  TGI: 36.1 µM
MCF7 breast
  GI50: 10.3 µM
  TGI: 34.3 µM
BT-549 breast
  GI50: 17.1 µM
  TGI: 31.3 µM
